The results in this text go back to patent US20210163896A1, “METHOD FOR PRODUCING ANIMAL CELL CONTAINING DNA OF INTEREST USING MICRONUCLEATE CELL FUSION METHOD” (NATIONAL UNIVERSITY CORPORATION TOTTORI UNIVERSITY, priority 2018, published 2021).

Assay [1] deals with Human immortalized mesenchymal stem cells (hiMSC). Kind of assay: Micronucleation induction in human immortalized mesenchymal stem cells, DAPI staining. It is filed as cell-based. As to conditions: 48 hours. As to the method:
Human immortalized mesenchymal stem cells (hiMSC: provided by Dr. Toguchida, Kyoto University) were seeded in individual wells of a 6-well plate at a density of 5×10^5 cells per well and cultured at 37° C. in the condition of 5% CO2 for 24 hours. For the micro nucleation induction experiment, 26 conditions in total were designed based on treatments with colcemid (0.05 μg/mL, 0.1 μg/mL, 0.2 μg/mL), MAS (0.1 μg/mL, 0.2 μg/mL, 0.4 μg/mL) and paclitaxel (0.8 nM, 4 nM, 20 nM, 100 nM, 400 nM), with the addition of reversine (no addition, 500 nM, 1000 nM, 1500 nM) during the treatments, and the cells were cultured at 37° C. in the condition of 5% CO2 for 48 hours.
In order to observe living cells after micronucleation induction, the cells were fixed with 4% paraformaldehyde and stained with DAPI (concentration: 1 μg/mL) for 15 minutes. The fixed cells were observed by fluorescence microscopy and the micronuclear formation induction rates were compared. Whether or not micronuclei were formed in individual cells was observed and the results are shown in a figure (FIG. 2).

For assay [2], the system named is Human iPS cells. As to the kind of experiment: Micronucleation induction in human iPS cells, microscopic observation. As to conditions: 48 hours, MAS 0.2 μg/mL compared to colcemid 0.25 μg/mL, paclitaxel 20-400 nM, reversine 0-1500 nM added. The assay is classed as cell-based. As to the method: Human iPS cells were seeded to a 6-well plate previously coated with 0.5 μg/cm^2 Laminin™-511 (Nippi. Inc.) at a density of 5×10^5 cells per well, and 10 μM Y-27632 was added. The human iPS cells were incubated at 37° C. in the condition of 5% CO2 for 24 hours. For a micronucleation induction experiment, 22 conditions in total were designed based on treatments with colcemid 0.25 μg/mL, MAS 0.2 μg/mL or paclitaxel (20 nM, 40 nM, 60 nM, 100 nM, 400 nM) with the addition of reversine (no addition, 500 nM, 1000 nM, 1500 nM) during the treatments, and the cells were cultured at 37° C. in the condition of 5% CO2 for 48 hours.
After micronucleation induction, the micronucleation induction rates were compared based on microscopic observation.

For assay [3], the system named is CHO MHG#4a cells. As to the kind of experiment: Micronucleation induction in CHO cells, fluorescence-microscopic observation. The assay is classed as cell-based, Chinese hamster. As to conditions: 72 hours, paclitaxel 0-1920 nM, reversine 0-12288 nM. As to the method:
Ninety six conditions, which were designed by combinations of paclitaxel (0 nM, 96 nM, 192 nM, 384 nM, 768 nM, 1152 nM, 1536 nM, 1920 nM) and reversine (0 nM, 192 nM, 384 nM, 768 nM, 1536 nM, 3072 nM, 4608 nM, 6144 nM, 7680 nM, 9216 nM, 10752 nM, 12288 nM), were assigned to the wells. Culture was carried out at 37° C. in the condition of 5% CO2 for 72 hours.
After micronucleation induction, the micronucleation induction rates were compared based on observation by fluorescence microscopy.

As for `CC(=O)O[C@H]1C(=O)[C@@]2(C)[C@H]([C@H](OC(=O)c3ccccc3)[C@]3(O)C[C@H](OC(=O)[C@H](O)[C@@H](NC(=O)c4ccccc4)c4ccccc4)C(C)=C1C3(C)C)[C@]1(OC(C)=O)CO[C@@H]1C[C@@H]2O` [paclitaxel], the “micronucleation induction, usefulness of agent” value in assay [1] is recorded as “effective”. Further, in assay [2], the micronucleation induction rate result is “micronucleation rate increases in a concentration dependent manner”. The micronucleation rate result in assay [3] was “micronucleation rate increases in a concentration dependent manner”.

`c1nc2nc(Nc3ccc(N4CCOCC4)cc3)nc(NC3CCCCC3)c2[nH]1` [reversine]: the “micronucleation induction, usefulness of agent” value in assay [1] is recorded as “useful”. Moreover, in assay [2], the micronucleation induction rate result is on record as “useful”. Besides, the micronucleation rate result in assay [3] is recorded as “micronucleation rate increases in a concentration dependent manner”.
